# According to PMC6271825, “Synthesis and Cytotoxic Activity Evaluation of Novel Arylpiperazine Derivatives on Human Prostate Cancer Cell Lines” (Molecules, 2014):
# Structures can show the parent of a compound that is named as a salt.
# Experiments:
# PC-3 cells = assay: CCK-8 in vitro cytotoxicity assay, PC-3; assay type: cell-based; details: human prostate cancer cell line PC-3, CCK-8, 24 h exposure, mean ± SD of three experiments
# Procedure: (§1) The synthesized target compounds 5 to 29 were evaluated for their in vitro cytotoxic activities against the three human prostate cancer cell lines (PC-3, LNCaP, and DU145), and compared with their effects on human prostate epithelial cell line RWPE-1 by CCK-8 assay.
# (§2) PC-3 and RWPE-1 cells were cultured in Dulbecco’s modification Eagle’s medium (DMEM, Invitrogen, Carlsbad, CA, USA) supplemented with 10% fetal bovine serum (FBS, Hyclone, Logan, UT, USA), 100 U/mL penicillin and 0.1 mg/mL streptomycin (Invitrogen). DU145 cells were cultured in RPMI1640 media supplemented with 10% fetal bovine serum (FBS, Hyclone), 100 U/mL penicillin and 0.1 mg/mL streptomycin (Invitrogen). LNCaP cells were cultured in F12 media supplemented with 10% fetal bovine serum (FBS, Hyclone), 100 U/mL penicillin and 0.1 mg/mL streptomycin (Invitrogen). The cells were incubated at 37 °C in a humidified atmosphere with 5% CO2.
# (§3) Cell proliferation was measured with the Cell Counting Kit-8 (CCK-8) assay kit (Dojindo Corp., Kumamoto, Japan). Cells were harvested during logarithmic growth phase and seeded in 96-well plates at a density of 1 × 10^5 cells/mL, and cultured at 37 °C in a humidified incubator (5% CO2) for 24 h, followed by exposure to various concentrations of compounds tested for 24 h. Subsequently 10 μL of CCK-8 (Dojindo) was added to each well, the cells were then incubated for an additional 1 h at 37 °C to convert WST-8 into formazan. Cell growth inhibition was determined by measuring the absorbance (Abs) at λ = 450 nm using amicroplate reader. Three independent experiments were performed. Cell growth inhibition was calculated according to the following equation: Growth inhibition = (1 − OD of treated cells/OD of control cells) × 100%
# (§4) The half maximal inhibitory concentrations (IC50) were obtained from linear regression analysis of the concentration-response curves plotted for each tested compound.
# LNCaP cells = assay: CCK-8 in vitro cytotoxicity assay, LNCaP; assay type: cell-based; details: Homo sapiens, LNCaP, 24 h, human prostate cancer cell line LNCaP, CCK-8, 24 h exposure, mean ± SD of three experiments
# Procedure: as §1, §2, §3, §4
# DU145 cells = assay: CCK-8 in vitro cytotoxicity assay, DU145; assay type: cell-based; details: DU-145; human prostate cancer cell line DU145, CCK-8, 24 h exposure, mean ± SD of three experiments
# Procedure: as §1, §2, §3, §4
# RWPE-1 cells = assay: CCK-8 in vitro cytotoxicity assay, RWPE-1 normal prostate epithelial cells; assay type: cell-based; details: human prostate epithelial cell line RWPE-1 (normal), CCK-8, 24 h exposure, mean ± SD of three experiments
# Procedure: as §1, §2, §3, §4
melting point [°C],SMILES,other results
173 to 174,"Brc1ccc(N2CCN(CCc3ccc(COc4ccc5c(c4)OCO5)cc3)CC2)cc1 (as salt: HCl) [Compound 24, 1-(2-(4-((Benzo[d][1,3]dioxol-5-yloxy)methyl)phenyl)ethyl)-4-(4-bromophenyl)piperazine]",
173 to 174,"COc1ccccc1N1CCN(CCc2ccc(COc3ccc4c(c3)OCO4)cc2)CC1 (as salt: HCl) [Compound 12, 1-(2-(4-((Benzo[d][1,3]dioxol-5-yloxy)methyl)phenyl)ethyl)-4-(2-methoxyphenyl)piperazine]",
171 to 172,"COc1cccc(N2CCN(CCc3ccc(COc4ccc5c(c4)OCO5)cc3)CC2)c1 (as salt: HCl) [Compound 14, 1-(2-(4-((Benzo[d][1,3]dioxol-5-yloxy)methyl)phenyl)ethyl)-4-(3-methoxyphenyl)piperazine]",
187 to 188,"Fc1ccccc1N1CCN(CCc2ccc(COc3ccc4c(c3)OCO4)cc2)CC1 (as salt: HCl) [Compound 15, 1-(2-(4-((Benzo[d][1,3]dioxol-5-yloxy)methyl)phenyl)ethyl)-4-(2-fluorophenyl)piperazine]",
164 to 165,"Clc1ccc(N2CCN(CCc3ccc(COc4ccc5c(c4)OCO5)cc3)CC2)cc1 (as salt: HCl) [Compound 20, 1-(2-(4-((Benzo[d][1,3]dioxol-5-yloxy)methyl)phenyl)ethyl)-4-(4-chlorophenyl)piperazine]",
195 to 196,"c1ccc(N2CCN(CCc3ccc(COc4ccc5c(c4)OCO5)cc3)CC2)cc1 (as salt: HCl) [Compound 5, 1-(2-(4-((Benzo[d][1,3]dioxol-5-yloxy)methyl)phenyl)ethyl)-4-phenylpiperazine]",
182 to 183,"N#Cc1ccc(N2CCN(CCc3ccc(COc4ccc5c(c4)OCO5)cc3)CC2)c(F)c1 (as salt: HCl) [Compound 18, 4-(4-(2-(4-((Benzo[d][1,3]dioxol-5-yloxy)methyl)phenyl)ethyl)piperazin-1-yl)-3-fluorobenzonitrile]",
176 to 177,"FC(F)(F)c1ccc(N2CCN(CCc3ccc(COc4ccc5c(c4)OCO5)cc3)CC2)cc1 (as salt: HCl) [Compound 26, 1-(2-(4-((Benzo[d][1,3]dioxol-5-yloxy)methyl)phenyl)ethyl)-4-(4-(trifluoromethyl)phenyl)piperazine]",
183 to 184,"c1ccc(C2CCN(CCc3ccc(COc4ccc5c(c4)OCO5)cc3)CC2)cc1 (as salt: HCl) [Compound 28, 1-(2-(4-((Benzo[d][1,3]dioxol-5-yloxy)methyl)phenyl)ethyl)-4-phenylpiperidine]",
185 to 186,"c1ccc(N2CCN(CCc3ccc(COc4ccc5c(c4)OCO5)cc3)CC2)nc1 (as salt: HCl) [Compound 7, 1-(2-(4-((Benzo[d][1,3]dioxol-5-yloxy)methyl)phenyl)ethyl)-4-(pyridin-2-yl)piperazine]",
202 to 203,"Cc1ccccc1N1CCN(CCc2ccc(COc3ccc4c(c3)OCO4)cc2)CC1 (as salt: HCl) [Compound 9, 1-(2-(4-((Benzo[d][1,3]dioxol-5-yloxy)methyl)phenyl)ethyl)-4-o-tolylpiperazine]",
181 to 182,"c1cnc(N2CCN(CCc3ccc(COc4ccc5c(c4)OCO5)cc3)CC2)nc1 (as salt: HCl) [Compound 8, 2-(4-(2-(4-((Benzo[d][1,3]dioxol-5-yloxy)methyl)phenyl)ethyl)piperazin-1-yl)pyrimidine]",
177 to 178,"Clc1cccc(N2CCN(CCc3ccc(COc4ccc5c(c4)OCO5)cc3)CC2)c1 (as salt: HCl) [Compound 21, 1-(2-(4-((Benzo[d][1,3]dioxol-5-yloxy)methyl)phenyl)ethyl)-4-(3-chlorophenyl)piperazine]",
174 to 175,"COc1ccc(N2CCN(CCc3ccc(COc4ccc5c(c4)OCO5)cc3)CC2)cc1 (as salt: HCl) [Compound 13, 1-(2-(4-((Benzo[d][1,3]dioxol-5-yloxy)methyl)phenyl)ethyl)-4-(4-methoxyphenyl)piperazine]",
169 to 170,"Fc1ccc(N2CCN(CCc3ccc(COc4ccc5c(c4)OCO5)cc3)CC2)c(F)c1 (as salt: HCl) [Compound 17, 1-(2-(4-((Benzo[d][1,3]dioxol-5-yloxy)methyl)phenyl)ethyl)-4-(2,4-difluorophenyl)piperazine]",
183 to 184,"CC(=O)c1ccc(N2CCN(CCc3ccc(COc4ccc5c(c4)OCO5)cc3)CC2)cc1 (as salt: HCl) [Compound 27, 1-(4-(4-(2-(4-((Benzo[d][1,3]dioxol-5-yloxy)methyl)phenyl)ethyl)piperazin-1-yl)phenyl)ethanone]",
171 to 172,"Cc1cccc(N2CCN(CCc3ccc(COc4ccc5c(c4)OCO5)cc3)CC2)c1 (as salt: HCl) [Compound 11, 1-(2-(4-((Benzo[d][1,3]dioxol-5-yloxy)methyl)phenyl)ethyl)-4-m-tolylpiperazine]",
176 to 177,"Clc1ccccc1N1CCN(CCc2ccc(COc3ccc4c(c3)OCO4)cc2)CC1 (as salt: HCl) [Compound 19, 1-(2-(4-((Benzo[d][1,3]dioxol-5-yloxy)methyl)phenyl)ethyl)-4-(2-chlorophenyl)piperazine]",
171 to 172,"FC(F)(F)c1ccccc1N1CCN(CCc2ccc(COc3ccc4c(c3)OCO4)cc2)CC1 (as salt: HCl) [Compound 25, 1-(2-(4-((Benzo[d][1,3]dioxol-5-yloxy)methyl)phenyl)ethyl)-4-(2-(trifluoromethyl)phenyl)piperazine]",
196 to 197,"Fc1ccc(N2CCN(CCc3ccc(COc4ccc5c(c4)OCO5)cc3)CC2)cc1 (as salt: HCl) [Compound 16, 1-(2-(4-((Benzo[d][1,3]dioxol-5-yloxy)methyl)phenyl)ethyl)-4-(4-fluorophenyl)piperazine]",
177 to 178,"Clc1cccc(N2CCN(CCc3ccc(COc4ccc5c(c4)OCO5)cc3)CC2)c1Cl (as salt: HCl) [Compound 22, 1-(2-(4-((Benzo[d][1,3]dioxol-5-yloxy)methyl)phenyl)ethyl)-4-(2,3-dichlorophenyl)piperazine]",
,"c1cnc(N2CCN(CCc3ccc(COc4ccc5c(c4)OCO5)cc3)CC2)nc1 [Compound 8, 2-(4-(2-(4-((Benzo[d][1,3]dioxol-5-yloxy)methyl)phenyl)ethyl)piperazin-1-yl)pyrimidine]",IC50 (PC-3 cells): > 50 µM; IC50 (LNCaP cells): 26.6 ± 0.86 µM; IC50 (DU145 cells): 8.25 ± 0.16 µM; IC50 (RWPE-1 cells): 31.7 ± 3.14 µM
177 to 178,"c1ccc(CN2CCN(CCc3ccc(COc4ccc5c(c4)OCO5)cc3)CC2)cc1 (as salt: HCl) [Compound 6, 1-(2-(4-((Benzo[d][1,3]dioxol-5-yloxy)methyl)phenyl)ethyl)-4-benzylpiperazine]",
,"FC(F)(F)c1ccccc1N1CCN(CCc2ccc(COc3ccc4c(c3)OCO4)cc2)CC1 [Compound 25, 1-(2-(4-((Benzo[d][1,3]dioxol-5-yloxy)methyl)phenyl)ethyl)-4-(2-(trifluoromethyl)phenyl)piperazine]",IC50 (PC-3 cells): > 50 µM; IC50 (LNCaP cells): 32.96 ± 0.21 µM; IC50 (DU145 cells): > 50 µM; IC50 (RWPE-1 cells): 18.9 ± 3.68 µM
,"OC1(c2ccccc2)CCN(CCc2ccc(COc3ccc4c(c3)OCO4)cc2)CC1 [Compound 29, 1-(2-(4-((Benzo[d][1,3]dioxol-5-yloxy)methyl)phenyl)ethyl)-4-phenylpiperidin-4-ol]",IC50 (PC-3 cells): > 50 µM; IC50 (LNCaP cells): 43 ± 7.58 µM; IC50 (DU145 cells): 38.2 ± 2.45 µM; IC50 (RWPE-1 cells): 19.73 ± 0.01 µM
177 to 178,"COc1ccc(Cl)cc1N1CCN(CCc2ccc(COc3ccc4c(c3)OCO4)cc2)CC1 (as salt: HCl) [Compound 23, 1-(2-(4-((Benzo[d][1,3]dioxol-5-yloxy)methyl)phenyl)ethyl)-4-(5-chloro-2-methoxyphenyl)piperazine]",
,"COc1ccccc1N1CCN(CCc2ccc(COc3ccc4c(c3)OCO4)cc2)CC1 [Compound 12, 1-(2-(4-((Benzo[d][1,3]dioxol-5-yloxy)methyl)phenyl)ethyl)-4-(2-methoxyphenyl)piperazine]",IC50 (PC-3 cells): > 50 µM; IC50 (LNCaP cells): 30.7 ± 0.83 µM; IC50 (DU145 cells): > 50 µM; IC50 (RWPE-1 cells): > 50 µM

SMILES,melting point [°C],other results
"OC1(c2ccccc2)CCN(CCc2ccc(COc3ccc4c(c3)OCO4)cc2)CC1 (as salt: HCl) [Compound 29, 1-(2-(4-((Benzo[d][1,3]dioxol-5-yloxy)methyl)phenyl)ethyl)-4-phenylpiperidin-4-ol]",194 to 195,
